The numbers were not newly measured in US20080242648A1, “COMBINATION OF ERa+ LIGANDS AND HISTONE D[…] THE TREATMENT OF CANCER” (Syndax Pharmaceuticals, Inc., a California Corporation, priority 2006, published 2008), which cites them from elsewhere.

The data set concerns breast cancer. The note with it: second line setting, post-menopausal women.

Turning to “7-alpha-[9-(4,4,5,5,5-penta fluoropentylsulphinyl)nonyl]estra-1,3,5-(10)-triene-3,17-beta-diol [Faslodex]”, the response rate is 17-20% and the time to progression is 5.4-5.5 month.
